Measurements taken from patent US9034303B2, “Neuroprotective and neuro-restorative iron chelators and monoamine oxidase inhibitors and uses thereof” (priority 2010, dated 2015).
“Also recorded” adds a separate entry of the source.

Legend:
[1] = system: 6-OHDA-induced lesions of nigrostrial dopamine neurons; details: prior publications; cited from earlier work
[2] = prior publications; cited from earlier work
[3] = Cytotoxicity experiments conducted in the past with M30, SHSY-5Y; assay type: cell-based, human; details: human, SH-SY5Y cells; experiments conducted in the past, methods not identical; read-out: LC50 (μM) SHSY-5Y
From the text: (§1) Moreover, the outcomes of the cytotoxicity experiments compare very favorably with those conducted in the past with M30.

SHSY-5Y = assay: as above; assay type: cell-based, human; details: past experiments
From the text: as §1

[4] = Stability in aqueous solution (PBS or saline) followed by HPLC; assay type: physicochemical; details: for Amount of compound remaining (%): 25° C., 0.5 mM
Method: (§2) Using high pressure liquid chromatography (HPLC), the stability of each of the tested compounds was determined by following its respective chemical character over time in either phosphate buffered saline (PBS) and/or 0.85% saline solution (sodium chloride). In each case, 0.5 mM of the tested compound in PBS or saline solution was incubated at 25° C. or at 37° C. for 20 hours or, in some cases, up to two days (48 hours).

[5] = Cytotoxicity experiments conducted in the past with M30, A549; assay type: cell-based; details: human, A549 cells, methods not identical, read-out: LC50 (μM) A549
From the text: as §1

[6] = Follow-up stability experiment at 37° C. in PBS; assay type: physicochemical
Method: as §2
In addition, in a follow-up experiment the instability of M30, and the stability of compounds 3, 7 and 8 was also confirmed at 37° C. in PBS, Table 2, below.

MAO-B = MAO-B (Mus musculus (Mouse), UniProt Q8BW75); assay: In vivo MAO-B inhibition in mice after a single i.p. injection; details: small intestine, one hour later
Method: (§3) For the MAO-inhibition study, mice (6 mice in each group) were injected intraperitoneally (i.p.) with compound 3 at the dosage of 5 or 10 mg/kg; or with M30 at the dosage of 10 mg/kg. Control mice received saline (0.1 mL) i.p. One hour later the mice were killed by cervical dislocation, while striatum and small intestine were removed rapidly and frozen in liquid nitrogen for further analysis. FIGS. 3 and 4 show MAO-A/MAO-B in vivo activity of compound 3 compared to the activity of M30. FIG. 3 presents an MAO inhibition in striatum, and FIG. 4 presents an MAO inhibition in intestine. The percent inhibition was computed based on comparison to control animals.

MAO-A = MAO-A (Mus musculus (Mouse), UniProt Q64133); assay type: in vivo, mice; details: mice, single i.p. injection, small intestine, one hour later
Method: as §3

[7] = Cytotoxicity experiments conducted in the past with M30, HepG2; assay type: cell-based; details: human, HepG2 cells, methods not identical, read-out: LC50 (μM) HepG2
From the text: as §1

in vitro = details: human
Method: The cytotoxicity of compound 3 was assessed in vitro using two standard cell lines, HepG2, derived from a human hepatocellular carcinoma, and SH-SY5Y, derived from a human neuroblastoma, both in the presence and absence of excess iron.
HepG2 cells were maintained at ˜5% CO2, 37° C., and 95% relative humidity in minimal essential media (MEM) supplemented with 10% fetal bovine serum plus 0.1 mM non-essential amino acids, 2 mM L-glutamine, and penicillin/streptomycin. SH-SY5Y cells were maintained at ˜5% CO2, 37° C., and 95% relative humidity in a mixture of minimal essential media (MEM) and F12 K media (1:1, v:v) supplemented with 10% fetal bovine serum plus 0.1 mM non-essential amino acids, 2 mM L-glutamine, and penicillin/streptomycin. The cells were subcultured every two to three days and plated in tissue culture treated opaque white 96-well plates at a density of 1×10^4 cells/well and incubated at ˜5% CO2, 37° C., and 95% relative humidity overnight prior to initiation of the assay.
A series of DMSO stocks of the test article at 100× of the final concentration were diluted 1:100 with fresh culture media (final DMSO concentration was 1%). The media from the plated cells was removed and replaced with 100 μL of media containing test article or tamoxifen with final concentrations ranging between 0.01 to 1000 μM in triplicate. Wells containing no cells were used as background controls. Tamoxifen was used as a known positive control and DMSO alone was used as a vehicle control. The cells were incubated for four hours at ˜5% CO2, 37° C., and 95% relative humidity.
Cell viability was determined using a commercially available kit to determine ATP levels by luminescence. Briefly, the buffer and lyophilized substrate from the kit were equilibrated to room temperature. The buffer was used to reconstitute the substrate just prior to addition to the wells of the cell plate (100 μL per well). The plate was placed into the Tecan Infinite M200 plate reader, agitated for 10 minutes followed by a 10 minute wait period, then read using an integration time of 0.5 seconds with no attenuation.
The mean luminescence from the test article treated cells was compared to that treated by DMSO only.

MAO-A, sequence (Q64133 whole entry): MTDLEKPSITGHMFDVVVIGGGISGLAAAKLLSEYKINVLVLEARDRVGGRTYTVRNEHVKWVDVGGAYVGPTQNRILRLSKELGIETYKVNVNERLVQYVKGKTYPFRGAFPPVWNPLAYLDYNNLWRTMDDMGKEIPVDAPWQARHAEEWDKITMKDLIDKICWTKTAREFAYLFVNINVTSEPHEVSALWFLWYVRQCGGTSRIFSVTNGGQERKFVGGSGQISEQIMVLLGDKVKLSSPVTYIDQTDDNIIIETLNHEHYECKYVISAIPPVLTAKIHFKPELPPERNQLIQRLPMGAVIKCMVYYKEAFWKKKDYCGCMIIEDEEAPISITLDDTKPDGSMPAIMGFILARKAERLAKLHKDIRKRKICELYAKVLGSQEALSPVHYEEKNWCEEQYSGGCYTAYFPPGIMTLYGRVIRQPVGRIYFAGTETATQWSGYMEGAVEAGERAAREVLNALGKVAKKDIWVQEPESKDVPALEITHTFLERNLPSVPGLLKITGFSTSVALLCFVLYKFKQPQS
MAO-B, sequence (Q8BW75 whole entry): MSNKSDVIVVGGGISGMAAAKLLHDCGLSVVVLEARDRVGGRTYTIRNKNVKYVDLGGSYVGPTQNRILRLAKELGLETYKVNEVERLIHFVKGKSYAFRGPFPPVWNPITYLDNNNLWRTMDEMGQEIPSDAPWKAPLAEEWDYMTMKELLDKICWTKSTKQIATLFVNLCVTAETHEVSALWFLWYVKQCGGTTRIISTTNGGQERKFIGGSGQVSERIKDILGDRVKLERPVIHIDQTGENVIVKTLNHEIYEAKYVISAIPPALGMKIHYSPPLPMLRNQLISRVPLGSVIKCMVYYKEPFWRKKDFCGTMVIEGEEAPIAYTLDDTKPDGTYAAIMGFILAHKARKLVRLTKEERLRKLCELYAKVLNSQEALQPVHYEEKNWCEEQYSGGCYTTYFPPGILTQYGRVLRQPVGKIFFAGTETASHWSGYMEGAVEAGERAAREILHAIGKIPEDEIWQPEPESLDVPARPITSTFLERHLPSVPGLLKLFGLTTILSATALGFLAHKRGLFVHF

In the case of `OCCN1CCN(Cc2ccc(O)c3ncccc23)CC1` [5-[4-(2-hydroxyethyl)piperazin-1-ylmethyl]-8-hydroxyquinoline], the “Activity against 6-OHDA in an animal model of Parkinson's disease” value (shortened to “Activity against 6-OHDA”) [1] is listed as “active against 6-hydroxydopamine (6-OHDA)” and the “Crossing of the BBB” value [2] is listed as “able to cross the BBB”.

For `C#CCN(C)Cc1ccc(O)c2ncccc12` [Compound M30, 5-[(methyl-2-propyn-1-ylamino)methyl]-8-quinolinol, reference compound], the CC50 [3] was over 1000 µM, the “SHSY-5Y cell death (%)” value (SHSY-5Y; with iron, M30 1 μM) was 0.69% and the “SHSY-5Y cell death (%)” value (SHSY-5Y; with iron, M30 10 μM) was 78.6%. The “SHSY-5Y cell death (%)” value (SHSY-5Y; with iron, M30 100 μM) was 38.5%, the “SHSY-5Y cell death (%)” value (SHSY-5Y; without iron, M30 1 μM) was −2. % and the “SHSY-5Y cell death (%)” value (SHSY-5Y; without iron, M30 10 μM) was 1.0%. For the same compound, the “SHSY-5Y cell death (%)” value (SHSY-5Y; without iron, M30 100 μM) was 19. %, the “Stability in aqueous solution (in words)” value ([4]; PBS and/or saline solution) was “unstable in aqueous solution; also recorded: degraded in both PBS and saline solution” and the “Amount of compound remaining (%)” value ([4]; PBS, 0.5 hours) was 76%. For the same compound, the “Amount of compound remaining (%)” value ([4]; PBS, 2 hours) was 57%, the “Amount of compound remaining (%)” value ([4]; PBS, 20 hours) was 28% and the “Amount of compound remaining (%)” value ([4]; PBS, 48 hours) was 15%. The “Amount of compound remaining (%)” value ([4]; saline, 0.5 hours) was 98%, the “Amount of compound remaining (%)” value ([4]; saline, 2 hours) was 85% and the “Amount of compound remaining (%)” value ([4]; saline, 20 hours) was 22%. The CC50 [5] was over 1000 µM, the “Stability at 37° C. in PBS (in words)” value [6] was “instability” and the “Amount of compound remaining (%)” value ([6]; 0.5 hours) was 50.8%. For the same compound, the “Amount of compound remaining (%)” value ([6]; 1 hour) was 54.9%, the “Amount of compound remaining (%)” value ([6]; 2 hours) was 45.1% and the “Amount of compound remaining (%)” value ([6]; 4 hours) was 24.3%. The “Amount of compound remaining (%)” value ([6]; 8 hours) was 14.4%, the “Amount of compound remaining (%)” value ([6]; 24 hours) was 4.26% and the “Activity against 6-OHDA” value [1] was “active against 6-hydroxydopamine (6-OHDA)”. The “MAO-B inhibition in intestine” value (MAO-B) was “Reduced inhibition in the intestinal tissue versus striatal tissue”, the “MAO-A inhibition in intestine” value (MAO-A) was “Reduced inhibition in the intestinal tissue versus striatal tissue” and the CC50 [7] was 842 µM. For the same compound, the “Crossing of the BBB” value [2] was “able to cross the BBB”.

For `CC(=O)N(O)CCCCCNC(=O)CCC(=O)N(O)CCCCCNC(=O)CCC(=O)N(O)CCCCCN` [Desferal], the “Activity against 6-OHDA” value [1] is given as “protected the rats against 6-OHDA-induced lesions” and the “Crossing of the BBB” value [2] is given as “does not cross the BBB”.

With `CC/C(=C(\c1ccccc1)c1ccc(OCCN(C)C)cc1)c1ccccc1` [tamoxifen, reference compound] the CC50 at 4 h (in vitro) was about 50 µM and the CC50 at 4 h (in vitro; LC50 (μM) SHSY-5Y) was about 50 µM.
